# Entries after “also recorded” stand apart in the source; their conditions may differ. Like-named read-outs stand apart in the source and are kept apart here. Marks after values point to notes of the source that are not given here.
# What was measured:
# MRSA-1 = assay: MIC broth microdilution assay; assay type: cell-based, Staphylococcus aureus; details: Staphylococcus aureus, MRSA
# MRSA-2 = assay: MIC broth microdilution assay; assay type: cell-based, Staphylococcus aureus; details: Staphylococcus aureus, MRSA
# MRSE 35984 [1] = assay: MIC broth microdilution assay; assay type: cell-based, Staphylococcus epidermidis; details: for MIC: Staphylococcus epidermidis, MRSE
# S. epi 12228 = assay: MIC broth microdilution assay; assay type: cell-based, Staphylococcus epidermidis; details: Staphylococcus epidermidis, 12228
# MtB H37Ra = assay: MIC assay for Mycobacterium tuberculosis; assay type: cell-based; details: 168 h, seven days
# [2] = LDH release assay for HeLa cytotoxicity; assay type: cell-based; details: human, HeLa cells; LDH release, 24 hours; tested at 25, 50 and 100 µM; read-out: HeLa Cytotox. IC50
# MRSA BAA-1707 [3] = assay: Calgary Biofilm Device (CBD) MBC/MBEC assay; assay type: cell-based, Staphylococcus aureus; details: for MBC: Staphylococcus aureus
# MRSE 35984 [4] = assay: Calgary Biofilm Device (CBD) MBC/MBEC assay; assay type: cell-based, Staphylococcus epidermidis; details: for MBC: Staphylococcus epidermidis, MRSE, CBD, planktonic killing, read-out: MRSE 35984 MBC; for MRSE Biofilm Eradication MBEC / MRSE Planktonic Killing MBC: supplement page 28, single CBD plate
# VRE 700221 [5] = assay: Calgary Biofilm Device (CBD) MBC/MBEC assay; assay type: cell-based, Enterococcus faecium
# MRSA BAA-1707 [6] = assay: Macromolecular synthesis inhibition assay with [3H]-labeled precursors; assay type: cell-based, Staphylococcus aureus
# Protocol: To characterize the antibacterial mechanism of action for HP small molecules, we investigated the effects HP 1 has against MRSA BAA-1707 on global biosynthetic pathways in rapidly-dividing (exponentially-growing) planktonic cells through quantifying the incorporation of various [^3H]-labeled precursors into their corresponding macromolecules. For these experiments, MRSA-1707 cultures were treated with [^3H]-thymidine (DNA biosynthesis), [^3H]-uridine (RNA biosynthesis) and [^3H]-leucine (protein biosynthesis) in the presence of HP 1 and antibiotic controls (4–16 x MIC).
# Macromolecular syntheses experiments were carried out in methicillin-resistant Staphylococcus aureus BAA-1707. An overnight culture (100 µL) of S. aureus BAA-1707 was sub-cultured into 10 mL of fresh TSBG media which was allowed to grow to exponential phase (OD600 = 0.2–0.3) before transferring 500 µL to each well in a 24 well-plate. The test compounds and vehicle control (DMSO) were added to achieve the desired concentrations relative to their MIC values against S. aureus BAA-1707. Treated cultures were then incubated at 37 °C for 30 minutes before radioactive precursors for DNA ([^3H] thymidine (0.5 µCi)), RNA ([^3H] uridine (0.5 µCi)) and protein ([^3H] leucine (1 µCi)) were added. […] DMSO served as our negative control. DNA and RNA radiolabeled cultures were then incubated in 37 °C for 15 minutes before being stopped by adding 60 µL of cold 5% trichloroacetic acid (TCA). The protein synthesis experiment was stopped after 40 minutes by adding 60 µL cold TCA. These mixtures were then incubated at 2 °C for at least 30 minutes before the contents of the plates were transferred onto glass microfiber filters (24 mm) and washed 5 times with 1 mL of 5% TCA. The filters are allowed to dry overnight before 3.5 mL of the scintillation fluid was added to the scintillation vials containing the filters and the radiation counts were measured using liquid scintillation LS 6500.
# H.) Macromolecular Synthesis Inhibition Assay: […]
# [7] = Hemolysis assay with red blood cells; details: human, pH 7.2
# MRSA BAA-44 = assay: MIC broth microdilution assay; assay type: cell-based; details: Staphylococcus aureus
# VRE 700221 [8] = assay: MIC broth microdilution assay; assay type: cell-based, Enterococcus faecium; details: for MIC: Enterococcus, VRE
# HeLa cells = assay: LDH release assay for HeLa cytotoxicity; assay type: cell-based; details: 100 µM
# [9] = Chemical stability in aqueous formulations; assay type: physicochemical; details: room temperature
# MRSA BAA-1707 [10] = assay: MIC broth microdilution assay; assay type: cell-based, Staphylococcus aureus; details: for MIC: Staphylococcus aureus
# MRSA BAA-1707 [11] = assay: MIC assay with metal(II) cation co-treatment; assay type: cell-based, Staphylococcus aureus
# four MRSA isolates = assay: MIC assays, panel of four MRSA isolates; assay type: cell-based; details: Staphylococcus aureus, range over isolates, read-out: MIC against a panel of four MRSA isolates
# S. epidermidis = assay: MIC assays, S. epidermidis strains; assay type: cell-based; details: Staphylococcus epidermidis; range over strains
# [12] = single plate shown as picture, read-out: MIC (µM), MIC Assay Against MRSA-2
# [13] = Table 1, read-out: MIC MRSE 35984
# [14] = Table 3, read-out: MRSE 35984 MIC
# [15] = Table 1, read-out: MIC S. epi 12228
# [16] = single plate shown as picture, read-out: MIC (µM), MIC Assay Against S. epidermidis 12228
# [17] = 24 h, CBD, planktonic killing, 24 hours treatment, read-out: MRSA BAA-1707 MBC
# [18] = 24 h, supplement page 27, second CBD plate, read-out: MRSA Planktonic Killing MBC
# [19] = supplement page 28, single CBD plate
# [20] = Table 1, read-out: MIC MRSA BAA-44
# [21] = Table 1, read-out: MIC VRE 700221
# [22] = Table 3, read-out: VRE 700221 MIC
# [23] = Table 1, three independent experiments, read-out: MIC MRSA BAA-1707
# [24] = Table 3, read-out: MRSA BAA-1707 MIC
# [25] = single plate shown as picture, read-out: MIC (µM), MIC Assay against MRSA BAA-1707
# [26] = single plate shown as picture, read-out: MIC (µM), MIC Assay Against MRSA-1
SMILES,"MIC (MRSA-1; Table 1, read-out: MIC MRSA-1)","MIC (MRSA-2; Table 1, read-out: MIC MRSA-2)",MIC (MRSA-2; [12]),MIC (MRSE 35984 [1]; [13]),MIC (MRSE 35984 [1]; [14]),MIC MRSE 35984 (MRSE 35984 [1]; Table 1),MIC (S. epi 12228; [15]),MIC (S. epi 12228; [16]),MIC (MtB H37Ra),IC50 at 24 h [2],MBC (MRSA BAA-1707 [3]; [17]),MBC (MRSA BAA-1707 [3]; [18]),MBC (MRSE 35984 [4]),MRSE Biofilm Eradication MBEC (MRSE 35984 [4]),MRSE Planktonic Killing MBC (MRSE 35984 [4]),"hemolysis at 1 h, 200 µM [7]",MIC (MRSA BAA-44; [20]),MIC (VRE 700221 [8]; [21]),MIC (VRE 700221 [8]; [22]),HeLa cell cytotoxicity at 100 µM (HeLa cells),also measured
"Oc1c(Br)cc(Br)c2nc3ccccc3nc12 [HP 1, 2,4-dibromo-1-hydroxyphenazine]",0.78 µM,2.35 µM,3.13 µM,2.35 µM,2.35 µM,2.35^a µM,2.35 µM,3.13 µM,25000 nM,~100 µM,50000 nM,25000 nM,23500 nM,250 µM,15600 nM,≤ 1%,–,–,–,–,"MRSA-1707 Biofilm Eradication MBEC (MRSA BAA-1707 [3]; Figure 7A, single CBD plate): 50 µM; MBC (MRSA BAA-1707 [3]; 24 h, supplement page 27, first CBD plate, read-out: MRSA Planktonic Killing MBC): 25000 nM; MBC (MRSA BAA-1707 [3]; Figure 7A, single CBD plate, read-out: MRSA-1707 Planktonic Eradication MBC): 25000 nM; MBC (VRE 700221 [5]; Enterococcus, VRE, CBD, planktonic killing, read-out: VRE 700221 MBC): 18800 nM; VRE Biofilm Eradication MBEC (VRE 700221 [5]; [19]): 12.5 µM; VRE Planktonic Killing MBC (VRE 700221 [5]; [19]): 12500 nM; RNA biosynthesis inhibition ([3H]-uridine) (MRSA BAA-1707 [6]; 4 x MIC): inhibits; protein biosynthesis inhibition ([3H]-leucine) (MRSA BAA-1707 [6]; 4 x MIC): inhibits; DNA biosynthesis inhibition ([3H]-thymidine) (MRSA BAA-1707 [6]; 8 x MIC): does not inhibit; also recorded: not inhibiting"
COCCOCCOCCOCCOC(=O)Oc1c(Br)cc(Br)c2nc3ccccc3nc12 [HP 24],–,2.35 µM,–,1.56 µM,1.56 µM,–,0.78 µM,–,25000 nM,> 100 µM,75000 nM,100000 nM,75000 nM,100 µM,50000 nM,2.4%,1.56 µM,6.25 µM,6.25 µM,no HeLa cell cytotoxicity,"MIC (MRSA BAA-44; single plate shown as picture, read-out: MIC (µM), MIC Assay Against MRSA BAA-44): 1.56 µM; chemically stable in aqueous formulations [9]: > 1 month"
COCCOCCOCCOCCOC(=O)Oc1c(Br)cc(Br)c2nc3c(C)cccc3nc12 [HP 25],≤ 0.1 µM,≤ 0.1 µM,–,0.15 µM,0.15 µM,–,≤ 0.1 µM,–,12500 nM,> 100 µM,–,–,–,–,–,≤ 1%,0.013 µM,–,–,no HeLa cell cytotoxicity,"MIC (MRSA BAA-1707 [10]; [23]): 0.003 µM; MIC (MRSA BAA-1707 [10]; [24]): 0.003 µM; MIC (MRSA BAA-1707 [10]; [25]): 0.003 µM; MIC (MRSA-1; [26]): 0.1 µM; MIC (MRSA BAA-1707 [11]; Staphylococcus aureus, Cu(II) co-treatment plate, lanes without metal, read-out: MIC): 0.1 µM; MIC (MRSA BAA-1707 [11]; Staphylococcus aureus, Fe(II) co-treatment plate, lanes without metal, read-out: MIC): 0.1 µM; MIC (MRSA BAA-1707 [11]; Staphylococcus aureus, Mg(II) co-treatment plate, lanes without metal, read-out: MIC): 0.003 µM; MIC (MRSA BAA-1707 [11]; Staphylococcus aureus, Table 2, MRSA BAA-1707, no metal(II) cation added, read-out: MIC): 0.0047 µM; MIC (MRSA BAA-1707 [11]; Staphylococcus aureus, Zn(II) extended plate assay, lanes without metal, read-out: MIC): 0.003 µM; MIC (MRSA BAA-1707 [11]; Staphylococcus aureus, copper(II) at 200 µM co-treatment, read-out: MIC w/Cu2+): > 100 µM; MIC (MRSA BAA-1707 [11]; Staphylococcus aureus, iron(II) at 200 µM co-treatment, read-out: MIC w/Fe2+): 25 µM; MIC (MRSA BAA-1707 [11]; Staphylococcus aureus, magnesium(II) at 200 µM co-treatment, read-out: MIC w/Mg2+): 0.0047 µM; MIC (MRSA BAA-1707 [11]; Staphylococcus aureus, single plate, 200 µM Cu(II), read-out: MIC (µM) + Cu(II)): > 100 µM; MIC (MRSA BAA-1707 [11]; Staphylococcus aureus, single plate, 200 µM Fe(II), read-out: MIC (µM) + Fe(II)): 25 µM; MIC (MRSA BAA-1707 [11]; Staphylococcus aureus, single plate, 200 µM Mg(II), read-out: MIC (µM) + Mg(II)): 0.003 µM; MIC (MRSA BAA-1707 [11]; Staphylococcus aureus, zinc(II) at 200 µM co-treatment, read-out: MIC w/Zn2+): 7e-05 µM; MIC (MRSA BAA-1707 [11]; extended plate assay, 200 µM Zn(II), read-out: MIC (µM) + Zn(II)): 0.00005 µM; chemically stable in aqueous formulations [9]: > 1 month"
CCc1cccc2nc3c(O)c(Br)cc(Br)c3nc12 [HP 18],0.15 µM,0.39 µM,0.39 µM,0.1 to 0.78 µM,≤ 0.1 µM,≤ 0.10^b µM,0.3 µM,0.39 µM,25000 nM,> 100 µM,–,–,–,–,–,1.7%,–,0.15 µM,0.15 µM,–,"MIC (MRSA BAA-1707 [10]; [23]): 0.05 to 0.3 µM; MIC (MRSA BAA-1707 [10]; [24]): ≤ 0.1 µM; MIC (MRSA BAA-1707 [10]; [25]): 0.1 µM; MIC MRSA BAA-1707 (MRSA BAA-1707 [10]; Table 1, three independent experiments): ≤ 0.10^b µM; MIC (MRSA-1; [26]): 0.2 µM; MIC (MRSE 35984 [1]; single plate shown as picture, read-out: MIC (µM), MIC Assay Against MRSE 35984): 0.1 µM; MIC (VRE 700221 [8]; single plate shown as picture, read-out: MIC (µM), MIC Assay Against VRE 700221): 0.2 µM; MIC VRE 700221 (VRE 700221 [8]; Table 1): 0.15^a µM; MIC (four MRSA isolates): 50 to 590 nM; MIC (S. epidermidis): 100 to 300 nM"

# Source: publication PMC5435703 (Scientific Reports, 2017)
